The text below walks through data of ChEMBL document CHEMBL1136827, “Further exploration of 1-[2-[Bis-(4-fluorophenyl)methoxy]ethyl]piperazine (GBR 12909): role of N-aromatic, N-heteroaromatic, and 3-oxygenated N-phenylpropyl substituents on affinity for the dopamine and serotonin transporter” (Bioorg Med Chem Lett, 2003).

The target in assay [1] is Sodium-dependent serotonin transporter (Rattus norvegicus, UniProt P31652). The experiment in a line: Binding affinity towards rat serotonin transporter (SERT).
For assay [2], the target named is Sodium-dependent dopamine transporter (Rattus norvegicus, UniProt P23977). The experiment in a line: Binding affinity towards dopamine transporter (DAT).

pKi: −log10 of the molar value.

Sodium-dependent serotonin transporter, sequence (P31652 whole entry): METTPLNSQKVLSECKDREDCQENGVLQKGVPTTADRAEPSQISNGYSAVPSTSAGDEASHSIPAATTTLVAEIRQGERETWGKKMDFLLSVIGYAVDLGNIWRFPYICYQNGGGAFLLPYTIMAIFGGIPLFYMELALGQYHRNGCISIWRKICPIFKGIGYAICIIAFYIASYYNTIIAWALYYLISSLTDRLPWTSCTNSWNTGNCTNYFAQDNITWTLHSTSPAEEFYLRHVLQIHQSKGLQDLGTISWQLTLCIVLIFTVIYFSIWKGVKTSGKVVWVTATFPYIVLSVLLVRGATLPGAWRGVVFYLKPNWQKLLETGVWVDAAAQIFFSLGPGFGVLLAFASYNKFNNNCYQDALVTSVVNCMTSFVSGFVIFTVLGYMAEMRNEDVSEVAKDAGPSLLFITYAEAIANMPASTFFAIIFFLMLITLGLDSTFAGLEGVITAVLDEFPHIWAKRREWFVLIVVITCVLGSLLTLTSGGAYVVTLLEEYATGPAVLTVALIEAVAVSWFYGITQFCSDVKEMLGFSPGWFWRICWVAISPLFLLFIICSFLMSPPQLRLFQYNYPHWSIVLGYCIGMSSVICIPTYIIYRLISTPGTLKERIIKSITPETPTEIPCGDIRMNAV
Sodium-dependent dopamine transporter, sequence (P23977 whole entry): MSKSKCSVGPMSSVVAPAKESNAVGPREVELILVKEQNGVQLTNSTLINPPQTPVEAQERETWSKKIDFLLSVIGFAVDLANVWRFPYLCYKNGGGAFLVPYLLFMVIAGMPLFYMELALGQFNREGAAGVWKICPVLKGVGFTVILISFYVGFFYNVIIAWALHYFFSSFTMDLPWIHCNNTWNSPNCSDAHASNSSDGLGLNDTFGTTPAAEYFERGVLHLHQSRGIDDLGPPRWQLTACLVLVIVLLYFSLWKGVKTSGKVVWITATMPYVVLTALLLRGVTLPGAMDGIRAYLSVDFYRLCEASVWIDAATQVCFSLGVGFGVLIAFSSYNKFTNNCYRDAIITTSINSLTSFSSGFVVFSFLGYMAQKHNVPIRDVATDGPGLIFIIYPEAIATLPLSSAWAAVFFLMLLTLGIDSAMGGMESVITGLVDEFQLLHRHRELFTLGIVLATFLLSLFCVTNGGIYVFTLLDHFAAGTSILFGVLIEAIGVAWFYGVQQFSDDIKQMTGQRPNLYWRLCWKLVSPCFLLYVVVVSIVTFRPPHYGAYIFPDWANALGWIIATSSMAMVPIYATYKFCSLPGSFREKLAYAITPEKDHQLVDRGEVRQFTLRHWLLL

On to `OC(CCN1CCN(CCOC(c2ccccc2)c2ccccc2)CC1)c1cccs1` (configuration not stated), for which the pKi (in general, −log10 of the Ki, conventionally taken in molar units) in assay [1] was 6.16; in assay [2] it was 7.82. The like results for `O=C1c2ccccc2CCC1CN1CCN(CCOC(c2ccccc2)c2ccccc2)CC1` (configuration not stated) were, in that order, 5.98 and 6.41. Turning to `COc1ccc2c(c1)CC[C@@H](CN1CCN(CCOC(c3ccccc3)c3ccccc3)CC1)[C@H]2O`, the pKi is 7.00 in assay [1] and 7.49 in assay [2].

On to `O=C1CCCCCC1CN1CCN(CCOC(c2ccc(F)cc2)c2ccc(F)cc2)CC1` (configuration not stated), for which the pKi was 6.28 in assay [1] and 7.31 in assay [2]. In the same order, the values of `O=C(CCN1CCN(CCOC(c2ccc(F)cc2)c2ccc(F)cc2)CC1)c1cccc(F)c1` are 6.66 and 7.05.

As to `O=C1CCCC1CN1CCN(CCOC(c2ccc(F)cc2)c2ccc(F)cc2)CC1` (configuration not stated), the pKi is 6.01 in assay [1] and 7.08 in assay [2]. The like results for `O[C@H]1c2ccccc2CC[C@H]1CN1CCN(CCOC(c2ccccc2)c2ccccc2)CC1` were, in that order, 6.30 and 7.46. The like results for `O[C@H]1c2ccccc2CC[C@H]1CN1CCN(CCOC(c2ccc(F)cc2)c2ccc(F)cc2)CC1` were, in that order, 7.52 and 8.89.

As for `O[C@@H]1c2ccccc2CC[C@H]1CN1CCN(CCOC(c2ccccc2)c2ccccc2)CC1`, the figures for the pKi in assay [1] and in assay [2] were 6.36 and 7.23, respectively. For `OC(CCN1CCN(CCOC(c2ccc(F)cc2)c2ccc(F)cc2)CC1)c1cccc(F)c1` (configuration not stated), the pKi in assay [1] is 7.28; in assay [2], 8.41. In the same order, the values of `OC1CCCCCC1CN1CCN(CCOC(c2ccc(F)cc2)c2ccc(F)cc2)CC1` (configuration not stated) are 6.32 and 7.66. The like results for `OC(CCN1CCN(CCOC(c2ccccc2)c2ccccc2)CC1)c1cccc(F)c1` (configuration not stated) were, in that order, 6.04 and 8.39.

Regarding `C1=C(CN2CCN(CCOC(c3ccccc3)c3ccccc3)CC2)CCc2ccccc21`, the pKi is 5.87 in assay [1] and 7.42 in assay [2]. As for `O=C(CCN1CCN(CCOC(c2ccccc2)c2ccccc2)CC1)c1ccco1`, the pKi in assay [1] is 5.48; in assay [2], 6.52. As for `O=C1CCCC1CN1CCN(CCOC(c2ccccc2)c2ccccc2)CC1` (configuration not stated), the pKi in assay [1] is 5.24. Take `OC1CCCC1CN1CCN(CCOC(c2ccccc2)c2ccccc2)CC1` (configuration not stated): the results for the pKi in assay [1] and in assay [2] were 5.66 and 6.77, respectively. In the same order, the values of `O=C1CCCCCC1CN1CCN(CCOC(c2ccccc2)c2ccccc2)CC1` (configuration not stated) are 5.39 and 6.57. The like results for `OC1CCCC1CN1CCN(CCOC(c2ccc(F)cc2)c2ccc(F)cc2)CC1` (configuration not stated) were, in that order, 6.04 and 7.49. Take `OC(CCN1CCN(CCOC(c2ccc(F)cc2)c2ccc(F)cc2)CC1)c1cccs1` (configuration not stated): the figures for the pKi in assay [1] and in assay [2] were 7.23 and 8.14, respectively. The like results for `COc1ccc2c(c1)CC[C@@H](CN1CCN(CCOC(c3ccccc3)c3ccccc3)CC1)[C@@H]2O` were, in that order, 7.03 and 7.40.

As for `O=C(CCN1CCN(CCOC(c2ccccc2)c2ccccc2)CC1)c1cccc(F)c1`, the pKi is 5.87 in assay [1] and 6.59 in assay [2]. The like results for `O=C(CCN1CCN(CCOC(c2ccc(F)cc2)c2ccc(F)cc2)CC1)c1cccs1` were, in that order, 6.96 and 7.08. In the same order, the values of `OC1CCCCC1CN1CCN(CCOC(c2ccc(F)cc2)c2ccc(F)cc2)CC1` (configuration not stated) are 6.24 and 7.43.

Take `OC1CCCCCC1CN1CCN(CCOC(c2ccccc2)c2ccccc2)CC1` (configuration not stated): the negative logarithm of the Ki (pKi) in assay [1] is 5.41; in assay [2], 6.68. The like results for `COc1ccc2c(c1)CCC(CN1CCN(CCOC(c3ccccc3)c3ccccc3)CC1)=C2` were, in that order, 6.28 and 7.41. Regarding `O=C(CCN1CCN(CCOC(c2ccccc2)c2ccccc2)CC1)c1ccc(Br)cc1`, the pKi in assay [1] is 5.59; in assay [2], 6.54. As to `O=C(CCN1CCN(CCOC(c2ccccc2)c2ccccc2)CC1)c1cccs1`, the negative-log Ki (pKi) in assay [1] was 5.91; in assay [2], 6.72. The like results for `O=C1CCCCC1CN1CCN(CCOC(c2ccccc2)c2ccccc2)CC1` (configuration not stated) were, in that order, 5.48 and 6.60.

For the compound `OC(CCN1CCN(CCOC(c2ccc(F)cc2)c2ccc(F)cc2)CC1)c1ccc(Br)cc1` (configuration not stated), the pKi in assay [1] was 7.30; in assay [2], 8.60.

For `OC(CCN1CCN(CCOC(c2ccc(F)cc2)c2ccc(F)cc2)CC1)c1ccco1` (configuration not stated), the results for the pKi in assay [1] and in assay [2] were 6.82 and 8.00, respectively. On to `O=C1c2ccccc2CCC1CN1CCN(CCOC(c2ccc(F)cc2)c2ccc(F)cc2)CC1` (configuration not stated), for which the figures for the pKi in assay [1] and in assay [2] were 6.96 and 7.24, respectively. In the same order, the values of `COc1ccc2c(c1)CC[C@@H](CN1CCN(CCOC(c3ccc(F)cc3)c3ccc(F)cc3)CC1)[C@H]2O` are 8.52 and 8.14. Consider `O=C1CCCCC1CN1CCN(CCOC(c2ccc(F)cc2)c2ccc(F)cc2)CC1` (configuration not stated), for which the values for the pKi in assay [1] and in assay [2] were 5.95 and 7.21, respectively. The like results for `Fc1ccc(C(OCCN2CCN(CC3=Cc4ccccc4CC3)CC2)c2ccc(F)cc2)cc1` were, in that order, 6.59 and 8.19. In the same order, the values of `COc1ccc2c(c1)CCC(CN1CCN(CCOC(c3ccc(F)cc3)c3ccc(F)cc3)CC1)C2=O` (configuration not stated) are 8.52 and 7.66. With `OC(CCN1CCN(CCOC(c2ccccc2)c2ccccc2)CC1)c1ccco1` (configuration not stated), the pKi was 5.71 in assay [1] and 7.72 in assay [2].

For the compound `OC(CCN1CCN(CCOC(c2ccccc2)c2ccccc2)CC1)c1ccc(Br)cc1` (configuration not stated), the pKi was 6.47 in assay [1] and 8.12 in assay [2]. In the same order, the values of `O=C(CCN1CCN(CCOC(c2ccc(F)cc2)c2ccc(F)cc2)CC1)c1ccc(Br)cc1` are 6.32 and 7.43. In the same order, the values of `O=C(CCN1CCN(CCOC(c2ccc(F)cc2)c2ccc(F)cc2)CC1)c1ccco1` are 6.46 and 7.14.

With `O[C@@H]1c2ccccc2CC[C@H]1CN1CCN(CCOC(c2ccc(F)cc2)c2ccc(F)cc2)CC1`, the pKi was 7.49 in assay [1] and 7.74 in assay [2]. In the case of `OC1CCCCC1CN1CCN(CCOC(c2ccccc2)c2ccccc2)CC1` (configuration not stated), the figures for the pKi in assay [1] and in assay [2] were 5.48 and 6.68, respectively. The like results for `COc1ccc2c(c1)CCC(CN1CCN(CCOC(c3ccccc3)c3ccccc3)CC1)C2=O` (configuration not stated) were, in that order, 7.15 and 7.11. The like results for `COc1ccc2c(c1)CCC(CN1CCN(CCOC(c3ccc(F)cc3)c3ccc(F)cc3)CC1)=C2` were, in that order, 7.24 and 7.85. In the same order, the values of `COc1ccc2c(c1)CC[C@@H](CN1CCN(CCOC(c3ccc(F)cc3)c3ccc(F)cc3)CC1)[C@@H]2O` are 8.52 and 7.74.
